Patent US20090076050A1, “SYNERGISTIC TUMOR-KILLING EFFECT OF RADIATION AND BERBERINE COMBINED TREATMENT IN LUNG CANCER” (CHUNG SHAN MEDICAL U., priority 2007, published 2009)

Assays:
[1] = tested on: bcl-2; assay: immunohistochemistry of bcl-2 in xenograft; format: in vivo, C57BL/6 mice
Procedure: The application of the additive cytotoxicity of IR combined with berberine in cancer treatment was further evidenced in an in vivo Lewis lung carcinoma (LLC) model in mice (Camphausen K, et al. Cancer Res 2001; 61:2207-11). Male C57BL/6 mice aged 4-6 weeks (National Taiwan University Animal Center, Taiwan) were used. To form a tumor xenograft, Lewis lung cells (2×10^6) were injected s.c. into the right hind limb. Animals were randomized into six groups: control, irradiation (IR) alone, berberine (1.0, 2.0 mg/kg) alone, and IR combined with berberine (1.0, 2.0 mg/kg). For tumor irradiation, mice were immobilized in a customized harness that exposed the right hind leg while shielding the remainder of the body by 3.5 cm of lead. Mice were exposed to a single dose of 8 Gy. […] To obtain tumor growth curves, three orthogonal tumor diameters were measured every 4-day intervals with a vernier caliper, and the mean values were calculated. […] Primary tumor growth delay was measured by calipers in two dimensions, and the volumes were calculated according to the formula: tumor volume=(width) 2×length×0.52. […] The tumor volume at the primary site of each group was measured before treatment, and the average tumor volume was designated as T0. When the animals were sacrificed at the end of experiment, the xenografts were removed, and the tumor volume was determined and presented as fold of T0. […]

[2] = tested on: A549 cells; assay: apoptosis hallmarks: DAPI stain, DNA electrophoresis, immunoblotting of caspase-3 and PARP; format: cell-based, human; conditions: 24 h
Procedure: The role of apoptosis in the sensitivity of A549 cells to IR induced by berberine was further clarified by DAPI stain. DNA extraction and electrophoresis on agarose gel were carried out as described previously (Solary E, et al. Therapie 2001; 56:511-18). After the indicated treatments, cells were fixed with 3 mL of 4% paraformaldehyde. To stain the cells, 500 μL of a 0.5 μg/mL chilled solution of DAPI (Invitrogen) stain was added and allowed to sit for 5 min. The cells were then rinsed with PBS solution and counted under a fluorescent microscope. For positive control of DNA fragmentation and DAPI stain, A549 cells were treated with 30 μM etoposide for 24 h. […] This contention was further confirmed by the lack of apoptotic DNA fragmentation and activation of caspase-3 and poly-(ADP-ribose) polymerases (PARP) as analyzed by DNA electrophoresis and immunoblotting (FIG. 3B, 3C). After the indicated treatment, the resultant supernatants were separated in 12%˜18% polyacrylamide gels. The blot was incubated with a polyclonal antibody against LC3 (gift from T. Yoshimori), PARP, caspase-3, bcl-2, beclin-1 and β-actin (Santa Cruz biotechnology, USA) for 2 h, and then with an appropriate peroxidase-conjugated secondary antibody (Sigma) for 1 h at 37° C.

[3] = tested on: A549 cells; assay: mitochondrial membrane potential by JC-1 flow cytometry; format: cell-based, human; conditions: 1.0, 2.5, 5.0 and 10 μM berberine combined with irradiation (6 Gy), 24 h
Procedure: Berberine has been reported to induce cell death in several cancer cells via mitochondrial disruption (Lin J P, et al. World J Gastroenterol 2006; 12:21-28.). Therefore, mitochondrial membrane potential was next measured with JC-1. Mitochondria membrane potential (Δ Ψm), the lipophilic cationic probe fluorochrome JC-1 (Invitrogen) was used. […] After a treatment of radiation (6 Gy) for 24 h in the absence or presence of 1.0-10 μM berberine, cells were rinsed with DMEM, and JC-1 (5 μmol/L) was loaded. Determination of Δ Ψm was also carried out with a FACScan Flow Cytometer. […] It has been reported that depolarized mitochondria would move into autophagic vacuoles in response to appropriate stimulation; thus, mitochondria dysfunction may be a point of overlap between apoptotic and autophagocytic processes (Bras M, et al. Biochemistry (Mosc) 2005; 70:231-39). […] On the other hand, beclin-1 siRNA and 3-MA (autophagy inhibitor) blocked the cell death induced by 5.0 μM berberine combined with 6 Gy IR (p<0.001). As a consequence, berberine sensitized A549 cells to IR damage via inducing autophagic cell death.

COc1ccc2cc3[n+](cc2c1OC)CCc1cc2c(cc1-3)OCO2 [berberine, Berberine]
bcl-2 protein expression in xenograft ([1]; berberine alone groups): reduced | bcl-2 protein expression in xenograft ([1]; co-treatment groups (berberine + IR)): reduced | apoptotic DNA fragmentation and activation of caspase-3 and PARP ([2]; berberine with IR, DNA electrophoresis and immunoblotting (FIG. 3B, 3C)): lack | number of apoptotic cells (DAPI stain) ([2]; co-treatment of berberine (>5.0 μM) with IR (6 Gy)): increased only slightly | mitochondrial membrane potential (JC-1) [3]: great loss of membrane potential
